From US20040209312A1, “Identifying and reducing the allergenicity of food proteins” (priority 2001, published 2004)

Test system: naïve human CD4+ T-cells and dendritic cells
Type: cell-based
Settings: for T-cell epitope designation: Ber e 1 dataset, background 4.27%

**Q.** Which T-cell epitope designation (5 μM peptide) does the source give for LEGMDESCRCEGLRM [peptide #12] here?
**A.** The T-cell epitope designation was “minor epitopes”.

**Q.** Which T-cell epitope designation (5 μM peptide) does the source give for LRMMMMRMQQEEMQP [Peptide # 16] here?
**A.** The T-cell epitope designation was “does not reach any epitope designation”.

**Q.** MQPRGEQMRRMMRLA [peptide #20] was tested. Which T-cell epitope designation (5 μM peptide) did it give?
**A.** The T-cell epitope designation was “minor epitopes”.

**Q.** For RQQMLSHCRMYMRQQ [peptide #4], which “percentage of the donor pool that responded with a baseline-normalized response of 2.95 or better (percent responders)” value (Ber e 1 15-mer peptide set, 5 μM peptide, human donors) is on record?
**A.** The value was 18.48%.

**Q.** What about the T-cell epitope designation (5 μM peptide) of the same substance?
**A.** Its T-cell epitope designation is “reached the three-fold cut-off”.

**Q.** “tetanus toxoid: positive control antigen in the T-cell proliferation assay [reference compound]” was tested. Which “positive control response (T-cell proliferation)” value (positive control antigen in all tests reported) did it give?
**A.** Its value is “robust positive control responses”.
